Patent publication US20250066369A1, “BICYCLIC PHTHALAZIN-1(2H)-ONE DERIVATIVES AND RELATED USES” (NodThera Limited, priority 2022, published 2025)
Structures can show the parent of a compound that is named as a salt.

Test system: IL-1β release upon NLRP3 activation in peripheral blood mononuclear cells (PBMC)
Assay: PBMC IC50 determination assay: inhibition of IL-1β release upon NLRP3 activation
Format: cell-based
Settings: PBMC primed with LPS 3 h, compound 30 min, stimulated with ATP (5 mM) or nigericin (10 μM) 1 h, IL-1β by ELISA (Protocol A) or HTRF (Protocol B)
Procedure: PBMC IC50 determination assay. The compounds of the present disclosure were tested for their inhibitory activity against IL-1β release upon NLRP3 activation in peripheral blood mononuclear cells (PBMC).
Protocol A. PBMC were isolated from buffy coats by density gradient centrifugation on Histopaque-1077 (Sigma, cat no. 10771). Isolated cells were seeded into the wells of a 96-well plate and incubated for 3 h with lipopolysaccharide (LPS). Following medium exchange, the compounds of the present disclosure were added (a single compound per well) and the cells were incubated for 30 min. Next, the cells were stimulated either with ATP (5 mM) or nigericin (10 μM) for 1 h and the cell culture media from the wells were collected for further analysis.
The release of IL-1β into the media was determined by a quantitative detection of IL-1β in the media using an IL-1β enzyme-linked immunosorbent assay (ELISA) Ready-SET-Go!, eBioscience cat. No. 88-7261-88. Briefly, in a first step, high affinity binding plates (Corning, Costar 9018 or NUNC Maxisorp Cat No. 44-2404) were coated overnight at 4° C. with specific capture antibody included in the kit (anti-human IL-1β ref. 14-7018-68). Subsequently, plates were blocked with blocking buffer for 1 h at room temperature (rt) and after washing with a buffer (PBS with 0.05% Tween-20) incubated with protein standard and culture media. After 2 h of incubation at rt, plates were washed and incubated with biotinylated detection antibody included in the kit (anti-human IL-1β Biotin ref 33-7110-68) for 1 h at rt. Plates were washed and incubated with HRP-streptavidin for 30 min at rt and washed again. The signal was developed after addition of 3,3′,5,5′-tetramethylbenzidine-peroxidase (TMB) until colour appeared and the reaction was stopped by 2 M H2SO4. A microplate spectrophotometer (BioTek) was used to detect signals with 450 nm. The detection range of IL-1β ELISA was […].
Protocol B. PBMC were isolated from buffy coats by density gradient centrifugation on Histopaque-1077 (Sigma, cat no. 10771). Isolated cells were seeded into the wells (280,000 cells/well) of a 96-well plate and incubated for 3 h with lipopolysaccharide (LPS, 1 μg/mL diluted 1000× from a 1 mg/mL stock solution). The compounds of the present disclosure were added (a single compound per well) and the cells were incubated for 30 min. Next, the cells were stimulated with ATP (5 mM final concentration diluted 20× from a 100 mM stock solution) for 1 h and the cell culture media from the wells were collected for further analysis.
The release of IL-1β into the media was determined by quantitative detection of IL-1β in the media using HTRF®, CisBio cat. No. 62HIL1BPEH. Briefly, cell culture supernatant were dispensed directly into the assay plate containing antibodies labelled with the HTRF® donor and acceptor. A microplate spectrophotometer (BMG) was used to detect signals at 655 nm and 620 nm. The detection range of IL-1β HTRF® was 39-6500 μg/mL.

| Structure (SMILES) | IC50 (PBMC) | IC50 |
| --- | --- | --- |
| CCc1nn(CC(=O)Nc2ncccn2)c(=O)c2cc(C3CC3)oc12 [Compound 89, 2-{2-cyclopropyl-7-ethyl-4-oxo-4H,5H-furo[2,3-d]pyridazin-5-yl}-N-(pyrimidin-2-yl)acetamide] | 0.1 to 1 µM |  |
| COCc1cc2c(C(C)C)nn(CC(=O)N[C@@H]3CCCN(C4CCC4)C3)c(=O)c2s1 [Compound 31, N-[(3R)-1-Cyclobutyl-3-piperidyl]-2-[4-isopropyl-2-(methoxymethyl)-7-oxo-thieno [2,3-d]pyridazin-6-yl]acetamide hydrochloride] | 1 to 3 µM |  |
| Cc1nn(CC(=O)Nc2ncccn2)c(=O)c2sc(C3CC3)cc12 [Compound 88, 2-{2-Cyclopropyl-4-methyl-7-oxo-6H,7H-thieno[2,3-d]pyridazin-6-yl}-N-(pyrimidin-2-yl)acetamide] | 0.1 to 1 µM |  |
| CCc1cc2c(C(C)C)nn(CC(=O)Nc3ncc(F)cn3)c(=O)c2s1 [Compound 24, 2-(2-Ethyl-4-isopropyl-7-oxo-thieno[2,3-d]pyridazin-6-yl)-N-(5-fluoropyrimidin-2-yl) acetamide] | ≤ 0.1 µM |  |
| CCn1cc2c(=O)n(CC(=O)Nc3ncncc3F)nc(C(C)C)c2n1 [Compound 5, 2-(2-Ethyl-7-isopropyl-4-oxo-pyrazolo[3,4-d]pyridazin-5-yl)-N-(5-fluoropyrimidin-4-yl) acetamide] | 1 to 3 µM |  |
| CC(C)c1nn(CC(=O)Nc2ncccn2)c(=O)c2sc(NCC(F)F)cc12 [Compound 95, 2-{2-[(2,2-Difluoroethyl)amino]-7-oxo-4-(propan-2-yl)-6H,7H-thieno[2,3-d]pyridazin-6-yl}-N-(pyrimidin-2-yl)acetamide] | 0.1 to 1 µM |  |
| CCc1nn(CC(=O)Nc2ncc(F)cn2)c(=O)c2cn(CC)nc12 [Compound 20, 2-(2,7-Diethyl-4-oxo-pyrazolo[3,4-d]pyridazin-5-yl)-N-(5-fluoropyrimidin-2-yl)acetamide] | 10 to 50 µM |  |
| CC(C)c1nn(CC(=O)N[C@@H]2CCCN(C3CC3)C2)c(=O)c2cn(C)nc12 [Compound 3, N-[(3R)-1-Cyclopropyl-3-piperidyl]-2-(7-isopropyl-2-methyl-4-oxo-pyrazolo[3,4-d]pyridazin-5-yl)acetamide] | 3 to 10 µM |  |
| CC(C)c1nn(CC(=O)Nc2ncccn2)c(=O)c2sc(CN)cc12 [Compound 120, 2-[2-(Aminomethyl)-7-oxo-4-(propan-2-yl)-6H,7H-thieno[2,3-d]pyridazin-6-yl]-N-(pyrimidin-2-yl)acetamide] | 10 to 50 µM |  |
| CC(C)c1nn(CC(=O)N[C@H]2C[C@@](C)(O)C2)c(=O)c2sc(Br)cc12 [Compound 74, 2-(2-Bromo-4-isopropyl-7-oxothieno[2,3-d]pyridazin-6(7H)-yl)-N-(cis-3-hydroxy-3-methylcyclobutyl)acetamide] | 1 to 3 µM |  |
| CCn1cc2c(=O)n(CC(=O)Nc3ncccn3)nc(CF)c2n1 [Compound 40, 2-(2-Ethyl-7-(fluoromethyl)-4-oxo-2,4-dihydro-5H-pyrazolo[3,4-d]pyridazin-5-yl)-N-(pyrimidin-2-yl)acetamide] | 1 to 3 µM |  |
| CNc1cc2c(C(C)C)nn(CC(=O)Nc3ncccn3)c(=O)c2s1 [Compound 94, 2-[2-(Methylamino)-7-oxo-4-(propan-2-yl)-6H,7H-thieno[2,3-d]pyridazin-6-yl]-N-(pyrimidin-2-yl)acetamide] | ≤ 0.1 µM |  |
| CCc1nn(CC(=O)Nc2ncco2)c(=O)c2sc(NC)cc12 [Compound 115, 2-[4-Ethyl-2-(methylamino)-7-oxo-6H,7H-thieno[2,3-d]pyridazin-6-yl]-N-(1,3-oxazol-2-yl)acetamide] | 0.1 to 1 µM |  |
| COCCNc1cc2c(C(C)C)nn(CC(=O)Nc3ncccn3)c(=O)c2s1 [Compound 96, 2-{2-[(2-Methoxyethyl)amino]-7-oxo-4-(propan-2-yl)-6H,7H-thieno[2,3-d]pyridazin-6-yl}-N-(pyrimidin-2-yl)acetamide] | 10 to 50 µM |  |
| Cc1cnc(NC(=O)Cn2nc(C(C)C)c3nn(C(C)C)cc3c2=O)nc1 [Compound 63, 2-(2,7-Diisopropyl-4-oxo-pyrazolo[3,4-d]pyridazin-5-yl)-N-(5-methylpyrimidin-2-yl)acetamide] | 0.1 to 1 µM |  |
| CNc1cc2c(C)nn(CC(=O)Nc3ncco3)c(=O)c2s1 [Compound 119, 2-[4-Methyl-2-(methylamino)-7-oxo-6H,7H-thieno[2,3-d]pyridazin-6-yl]-N-(1,3-oxazol-2-yl)acetamide] | 1 to 3 µM |  |
| Cc1nn(CC(=O)N[C@@H]2CCCN(C)C2)c(=O)c2ccc(C3CC3)nc12 [Compound 46] | 1 to 3 µM |  |
| CC(C)c1nn(CC(=O)Nc2ncccn2)c(=O)c2ccc(C3CC3)nc12 [Compound 27, 2-(2-Cyclopropyl-8-isopropyl-5-oxo-pyrido [2,3-d]pyridazin-6-yl)-N-pyrimidin-2-yl-acetamide] | 0.1 to 1 µM |  |
| CC(C)c1nn(C2(C(=O)Nc3ncc(F)cn3)CC2)c(=O)c2cn(C(C)C)nc12 [Compound 51, 1-(2,7-Diisopropyl-4-oxo-2,4-dihydro-5H-pyrazolo[3,4-d]pyridazin-5-yl)-N-(5-fluoropyrimidin-2-yl)cyclopropane-1-carboxamide] | 0.1 to 1 µM |  |
| CC(C)c1nn(C2(C(=O)Nc3ncccn3)CC2)c(=O)c2cn(C3CC3)nc12 [Compound 70, 1-(2-Cyclopropyl-7-isopropyl-4-oxo-2,4-dihydro-5H-pyrazolo[3,4-d]pyridazin-5-yl)-N-(pyrimidin-2-yl)cyclopropane-1-carboxamide] |  | 10 to 50 µM |
| CCOc1cc2c(C(C)C)nn(CC(=O)Nc3ncccn3)c(=O)c2s1 [Compound 107, 2-[2-Ethoxy-7-oxo-4-(propan-2-yl)-6H,7H-thieno[2,3-d]pyridazin-6-yl]-N-(pyrimidin-2-yl)acetamide] | 1 to 3 µM |  |
| CC(C)c1nn(CC(=O)Nc2ncco2)c(=O)c2cn(C(C)C)nc12 [Compound 72, 2-(2,7-Diisopropyl-4-oxo-pyrazolo[3,4-d]pyridazin-5-yl)-N-oxazol-2-yl-acetamide] | 0.1 to 1 µM |  |
| CC(C)c1nn(C2(C(=O)Nc3ncccn3)CC2)c(=O)c2cn(C(C)C)nc12 [Compound 50, 1-(2,7-Diisopropyl-4-oxo-2,4-dihydro-5H-pyrazolo[3,4-d]pyridazin-5-yl)-N-(pyrimidin-2-yl)cyclopropane-1-carboxamide] | 1 to 3 µM |  |
| CCOC(=O)Cc1cnc(NC(=O)Cn2nc(C)c3oc(C4CC4)cc3c2=O)nc1 [Compound 92, Ethyl 2-[2-(2-{2-cyclopropyl-7-methyl-4-oxo-4H,5H-furo[2,3-d]pyridazin-5-yl}acetamido)pyrimidin-5-yl]acetate] | 0.1 to 1 µM |  |
| CC(C)c1nn(CC(=O)Nc2ncccn2)c(=O)c2sc(N)cc12 [Compound 101, 2-[2-Amino-7-oxo-4-(propan-2-yl)-6H,7H-thieno[2,3-d]pyridazin-6-yl]-N-(pyrimidin-2-yl)acetamide] | 1 to 3 µM |  |
| CC(C)c1nn(C2(C(=O)Nc3ncccn3)CC2)c(=O)c2cn(C3CC3)nc12 [Compound 66, 1-(2-Cyclopropyl-7-isopropyl-4-oxo-2,4-dihydro-5H-pyrazolo[3,4-d]pyridazin-5-yl)-N-(pyrimidin-2-yl)cyclopropane-1-carboxamide] |  | 3 to 10 µM |
| Cc1nc(NC(=O)Cn2nc(C(C)C)c3cc(C4CC4)ncc3c2=O)ns1 [Compound 19, 2-(7-Cyclopropyl-1-isopropyl-4-oxo-pyrido[3,4-d]pyridazin-3-yl)-N-(5-methyl-1,2,4-thiadiazol-3-yl)acetamide] | 10 to 50 µM |  |
| Cc1nn(CC(=O)Nc2ncccn2)c(=O)c2ccc(C3CC3)nc12 [Compound 34, 2-(2-Cyclopropyl-8-methyl-5-oxo-pyrido[2,3-d]pyridazin-6-yl)-N-pyrimidin-2-yl-acetamide] | 1 to 3 µM |  |
| CCn1cc2c(=O)n(CC(=O)N[C@H]3CCCN4CCC[C@@H]34)nc(C(C)C)c2n1 (stereo in doubt) [Compound 7, N-[Cis-1,2,3,5,6,7,8,8a-octahydroindolizin-8-yl]-2-(2-ethyl-7-isopropyl-4-oxo-pyrazolo[3,4-d]pyridazin-5-yl) acetamide hydrochloride] | 1 to 3 µM |  |
